Legend:
[1] = tested on: cerulein-induced acute pancreatitis in mice; assay: Cerulein-induced acute pancreatitis animal model; assay type: in vivo, mouse; details: 5 μg/kg or 10 μg/kg, tail vein; versus Cerulein; FIG. 8
Experimental: Acute pancreatitis was induced by intraperitoneal administration of cerulein (50 μg/kg) dissolved in saline to 8-week-old male mice. Compound 1 was administered at a concentration of 5 μg/kg or 10 μg/kg into the tail vein 24 hours and 1 hour before cerulein administration, and cerulein was intraperitoneally administered six times at 1-hour intervals. 18 hours after the first cerulein administration, the mice were anesthetized, the serum was separated, and the amylase and lipase activities in the serum were measured, which are shown in FIG. 8.

CT26 colorectal cancer = CT26 colorectal cancer tumor model; assay type: in vivo, nude mice; details: 1.0 mg/kg, FIG. 22
Experimental: A colorectal cancer model was established by subcutaneously transplanting CT26 colorectal cancer cell line into nude mice. The colorectal cancer model was divided into two groups: vehicle administration group and Compound 1 administration group. […] Similar to Experimental Example 13, tumor size was calculated before drug administration and on days 3, 7, 10, 14, 18, 22, and 24 after drug administration, and body weight was measured before drug administration and on days 7, 14 and 22 after drug administration, which are shown in FIG. 22.

NCI-H295R cells = assay: Cortisol production, Cushing's syndrome cell model, ELISA; assay type: cell-based, human; details: 0.1, 0.5 and 1 μM; 8-Br-cAMP 0.5 mM; FIG. 14
Experimental: NCI-H295R cells (ATCC #CRL-2128), which are a human adrenocortical carcinoma cell line, were seeded at a density of 2.5×10^5 cells/well in a 24-well plate. The cells were cultured for 48 hours, and then they were pretreated with Compound 1 (0.1 μM, 0.5 μM, and 1 μM) for 12 hours. Furthermore, to increase cortisol synthesis, the cells were treated with 8-bromoadenosine […] (8-Br-CAMP) at a concentration of 0.5 mM, and then re-treated with Compound 1, and allowed to react for 24 hours. After the reaction, the cell culture medium was collected, and the amount of cortisol produced in the cells was measured using an ELISA kit, and the results are shown in FIG. 14.

[2] = tested on: HCT-116 colorectal cancer; assay: HCT-116 colorectal cancer tumor model; assay type: in vivo, nude mice; details: 0.5 and 1.0 mg/kg
Experimental: A colorectal cancer model was established by subcutaneously transplanting HCT-116 colorectal cancer cell line into nude mice. The colorectal cancer model was divided into the following three groups: Group 1 was administered a vehicle as a control group, Group 2 was administered 0.5 mg/kg of Compound 1, and Group 3 was administered 1.0 mg/kg of Compound 1. The drug was orally administered once a day for a total of 21 times. To evaluate the therapeutic efficacy, the tumor size was measured before drug administration and on days 3, 7, 10, 14, 17, 21, and 24 after drug administration. The tumor size was calculated as follows:
Tumor size (mm^3)=(A×B^2)/2 • wherein A and B represent the tumor long axis and short axis, respectively.
In addition, the body weight was measured before drug administration and on days 7, 14, and 21 after drug administration.

Mfn2−/− MEF cells = assay: Mitochondrial oxygen consumption rate, Charcot-Marie-Tooth disease model; assay type: cell-based, mouse; details: 1 μM, 24 hours, FIG. 13
Experimental: To verify the functional loss due to mutation of MFN2 present in the outer mitochondrial membrane, which is the main cause of Charcot-Marie-Tooth disease, the mitochondrial oxygen consumption rate (OCR) was measured. In detail, Mfn2^+/^+MEF cells (normal cells), which are mouse embryonic fibroblasts expressing Mfn2, and Mfn2/MEF cells not expressing Mfn2 were cultured at a density of 1×10^4 for 24 hours in a Seahorse […] culture dish using a DMEM medium supplemented with 10% FBS and penicillin/streptomycin. The cells were treated with DMSO as a vehicle and Compound 1 (1 μM) and cultured for another 24 hours. The mitochondrial oxygen consumption rate was measured using a Seahorse XFe96 analyzer (Agilent Technologies), and the results are shown in FIG. 13.

[3] = Growth inhibition of normal cells, Cell Counting Kit-8; assay type: cell-based, human (BJ); hamster (CHO); murine (Raw264.7); mouse (L929); details: normal cells, concentration of up to less than 40 μM, 10% FBS, FIG. 15
Experimental: (§1) In order to verify the growth inhibitory effect of Compound 1 on various normal and cancer cell lines, 25 types of cell lines listed in Table 7 below were tested. In detail, each cell was seeded at a density of 2×10^4 cells/well in a 96-well plate and cultured for 24 hours, and then the medium was replaced with a medium comprising 0.5% (for cancer cells) or 10% (for normal cells) FBS, and Compound 1 was treated at various concentrations. 24 hours later, 10 μL of Cell Counting Kit-8 (Dojindo Molecular Technologies) was added, and 1 hour later, absorbance at 480 nm was measured using a microplate reader (TECAN SPARK), and the results are shown in FIGS. 15 to 21.

[4] = tested on: normal cells (BJ, CHO, Raw264.7, L929); assay: as above; assay type: cell-based, human (BJ); hamster (CHO); murine (Raw264.7); mouse (L929); details: concentrations of up to less than 40 μM, 24 hours
Experimental: as §1

[5] = tested on: acute kidney ischemic reperfusion (IR) injury in C57BL6J mice; assay: Acute kidney ischemic reperfusion (IR) injury animal model; assay type: in vivo, mouse; details: 4 μg/kg and 8 μg/kg, tail vein
Experimental: Vehicle and Compound 1 (4 μg/kg or 8 μg/kg) were administered to 8-week-old male C57BL6J mice via the tail vein 24 hours before, 1 hour before, and 12 hours after ischemic reperfusion (IR) surgery. The surgery was performed by blocking the artery leading to the kidney to induce ischemia for 37 minutes. The blocked artery was released, and 24 hours later, the mice were anesthetized and autopsied. Other part was used to synthesize cDNA, and a kidney damage marker, NGAL was identified by real-time PCR. And serum was separated from the blood, and creatinine, which is a kidney damage marker in the serum, was examined, and the results are shown in FIG. 3.

[6] = versus vehicle-treated IR, FIG. 2

With `CC(C(=O)NNc1ccc(F)cc1)n1cc(-c2cc(F)cc3c2-c2ccccc2C3(O)C(F)(F)F)cn1` (centres unmarked) [Compound 1, 2-(4-(2-fluoro-9-hydroxy-9-(trifluoromethyl)-9H-fluoren-4-yl)-1H-pyrazol-1-yl)-N′-(4-fluorophenyl)propanehydrazide] as the compound, how does the serum amylase activity [1] read?
Its serum amylase activity is “decreased by administration of Compound 1 in a dose-dependent manner”.

What about the serum lipase activity [1] of the same compound?
Its serum lipase activity is “decreased by administration of Compound 1 in a dose-dependent manner”.

What about the body weight change (CT26 colorectal cancer) of the same compound?
Its body weight change is “Neither the vehicle administration group nor the compound 1 administration group showed any change in the body weight”.

What about the “tumor growth (in words)” value (CT26 colorectal cancer; p<0.05 versus vehicle) of the same compound?
Its value is “statistically significantly delayed and inhibited”.

And the cortisol production (NCI-H295R cells)?
Its cortisol production is “significantly inhibited by the administration of Compound 1, and this inhibition showed a concentration-dependent tendency”.

And the body weight change ([2]; oral once a day, 21 times)?
The body weight change was “no significant body weight change”.

And the “tumor growth (in words)” value ([2]; oral, p<0.05 versus vehicle, FIG. 21)?
Its value is “statistically significant concentration-dependent tumor growth inhibitory effect”.

What about the “mitochondrial oxygen consumption rate (OCR)” value (Mfn2−/− MEF cells) of the same compound?
The value was “markedly restored to a level comparable to that of normal cells”.

And the viability at 24 h [3]?
Its viability at 24 h is ≥ 70%.

What about the “toxicity on normal cells” value [4] of the same compound?
Its value is “does not exhibit toxicity on normal cells”.

And the “NGAL RNA expression” value ([5]; kidney, real-time PCR, p<0.01 versus IR+Vehicle, FIG. 3)?
The value was “significantly reduced”.

What about the serum creatinine ([5]; p<0.01 versus IR+Vehicle, FIG. 3) of the same compound?
The serum creatinine was “significantly reduced”.

And the “apoptosis (TUNEL staining) of kidney tissue” value [5, 6]?
The value was “significant reduction in the apoptosis”.

What about the “renal tubular tissue damage (H&E staining)” value [5, 6] of the same compound?
Its value is “significant reduction in the renal tubular tissue damage”.
